# Experimental data published in patent publication US11174251B2, “Compositions and methods for inhibition of the JAK pathway” (Rigel Pharmaceuticals, Inc., priority 2010, dated 2021).
# Where a name gives a salt, the structure may show the parent alone.
# Molecular target: T1, JAK3 (Homo sapiens, UniProt P52333)
# T1 construct: The Ramos B-cell line was acquired from ATCC (ATCC Catalog No. CRL-1596); host or cells: Ramos B-cell line (human)
# T1 sequence (P52333 1-1124): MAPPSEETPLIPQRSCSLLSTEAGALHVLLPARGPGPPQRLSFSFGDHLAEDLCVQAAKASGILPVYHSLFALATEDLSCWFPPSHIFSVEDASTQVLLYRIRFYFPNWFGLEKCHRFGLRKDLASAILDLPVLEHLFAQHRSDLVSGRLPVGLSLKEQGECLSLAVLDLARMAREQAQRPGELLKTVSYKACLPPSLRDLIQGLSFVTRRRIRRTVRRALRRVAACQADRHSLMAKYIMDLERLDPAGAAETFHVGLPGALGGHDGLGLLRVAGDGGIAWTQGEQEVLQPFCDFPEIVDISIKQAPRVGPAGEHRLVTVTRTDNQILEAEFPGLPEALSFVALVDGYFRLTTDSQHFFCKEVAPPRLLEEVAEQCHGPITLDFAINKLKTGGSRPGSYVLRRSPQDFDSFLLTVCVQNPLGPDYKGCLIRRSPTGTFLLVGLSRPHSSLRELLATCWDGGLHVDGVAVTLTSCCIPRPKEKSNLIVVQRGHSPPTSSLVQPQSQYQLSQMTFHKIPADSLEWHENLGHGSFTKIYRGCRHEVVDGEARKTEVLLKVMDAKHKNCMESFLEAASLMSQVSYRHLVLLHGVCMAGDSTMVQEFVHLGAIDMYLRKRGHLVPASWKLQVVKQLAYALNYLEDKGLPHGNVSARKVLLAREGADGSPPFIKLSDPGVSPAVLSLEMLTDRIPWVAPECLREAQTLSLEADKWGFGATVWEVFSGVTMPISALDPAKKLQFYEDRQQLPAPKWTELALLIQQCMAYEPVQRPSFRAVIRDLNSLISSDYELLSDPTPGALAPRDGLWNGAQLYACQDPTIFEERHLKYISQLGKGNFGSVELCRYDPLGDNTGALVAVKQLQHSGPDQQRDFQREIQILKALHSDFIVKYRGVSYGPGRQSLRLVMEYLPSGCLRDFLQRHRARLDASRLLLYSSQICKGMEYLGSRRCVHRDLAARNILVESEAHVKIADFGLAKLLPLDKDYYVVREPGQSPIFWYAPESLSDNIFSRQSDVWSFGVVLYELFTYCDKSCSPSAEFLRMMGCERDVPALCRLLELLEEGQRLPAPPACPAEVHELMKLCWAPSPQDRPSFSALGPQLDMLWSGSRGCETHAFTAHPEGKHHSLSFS
# Assay: Assay for CD23 expression on Ramos B-cells stimulated by IL-4 (Table IV: ability to inhibit JAK3 activity)
# Assay type: cell-based
# Conditions: tested under conditions described in Example 3 (so in the source)
# In short: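 IL-4-induced CD23 surface expression on human Ramos B cells, detected by flow cytometry after 20–24 h stimulation (IL-4 final 50 units/mL). Compound or DMSO added 1 h beforehand at 37 °C; cells kept in RPMI with 5% serum.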
row,IC50,Compound
1,500 to 5000 nM,"O=c1[nH]c2cc(Nc3ccnc(Nc4cc(F)cc(F)c4)n3)ccc2o1 [Compound I-13, 5-(2-(3,5-difluorophenylamino)pyrimidin-4-ylamino)benzo[d]oxazol-2(3H)-one trifluoroacetate salt]"
2,< 500 nM,"Cc1ccc(Nc2ncc(F)c(Nc3ccc4oc(=O)[nH]c4c3)n2)cc1-c1ccncc1 [Compound I-203, 5-(2-(4-methyl-3-(pyridin-4-yl)phenylamino)-5-fluoropyrimidin-4-ylamino)benzo[d]oxazol-2(3H)-one]"
3,< 500 nM,"COc1ccc(Nc2ncc(C)c(Nc3ccc4oc(=O)[nH]c4c3)n2)c(F)c1 [Compound I-75, 5-(2-(2-fluoro-4-methoxyphenylamino)-5-methylpyrimidin-4-ylamino)benzo[d]oxazol-2(3H)-one trifluoroacetate salt]"
4,> 10000 nM,"COC(=O)c1cnc(Nc2ccc(C)c(OC)c2)nc1Nc1ccc2oc(=O)[nH]c2c1 [Compound I-56, 2-(3-Methoxy-4-methyl-phenylamino)-4-(2-oxo-2,3-dihydro-benzooxazol-5-ylamino)-pyrimidine-5-carboxylic acid methyl ester trifluoroacetate salt]"
5,< 500 nM,"Cc1cnc(Nc2cc(C)c(CO)c(C)c2)nc1Nc1ccc2oc(=O)[nH]c2c1 [Compound I-142, N2-(3,5-dimethyl-4-hydroxymethyl)phenyl-5-methyl-N4-(2-oxo-2,3-dihydro-1,3-benzoxazol-5-yl)-2,4-pyrimidinediamine]"
6,> 10000 nM,"COc1cc(Nc2ncc(F)c(Nc3cc(C)c4oc(=O)[nH]c4c3)n2)cc(C(F)(F)F)c1 [Compound I-176, 5-(2-(3-(trifluoromethyl)-5-methoxyphenylamino)-5-fluoropyrimidin-4-ylamino)-7-methylbenzo[d]oxazol-2(3H)-one trifluoroacetate salt]"
7,< 500 nM,"CCOc1cc(Nc2ncc(C)c(Nc3ccc4oc(=O)[nH]c4c3)n2)cc(C)c1C [Compound I-103, 5-(2-(3-ethoxy-4,5-dimethylphenylamino)-5-methylpyrimidin-4-ylamino)benzo[d]oxazol-2(3H)-one ditrifluoroacetate salt]"
8,< 500 nM,"O=c1[nH]c2cc(Nc3nc(Nc4ccc(F)c(-c5ccncc5)c4)ncc3F)ccc2o1 [Compound I-205, 5-(2-(4-fluoro-3-(pyridin-4-yl)phenylamino)-5-fluoropyrimidin-4-ylamino)benzo[d]oxazol-2(3H)-one]"
9,< 500 nM,"COc1ccc(Nc2ncc(Cl)c(Nc3ccc4oc(=O)[nH]c4c3)n2)c(F)c1 [Compound I-76, 5-(5-chloro-2-(2-fluoro-4-methoxyphenylamino)pyrimidin-4-ylamino)benzo[d]oxazol-2(3H)-one trifluoroacetate salt]"
10,< 500 nM,"Cc1cc(Nc2ncc(F)c(Nc3ccc4oc(=O)[nH]c4c3)n2)cc(C)c1F [Compound I-215, N2-(3,5-dimethyl-4-fluoro)phenyl-5-fluoro-N4-(2-oxo-2,3-dihydro-1,3-benzoxazol-5-yl)-2,4-pyrimidinediamine]"
11,< 500 nM,"Cc1cc(Nc2ncc(F)c(Nc3cc(F)c4oc(=O)[nH]c4c3)n2)cc(C)c1C [Compound I-188, 5-(2-(3,4,5-trimethylphenylamino)-5-fluoropyrimidin-4-ylamino)-7-fluorobenzo[d]oxazol-2(3H)-one trifluoroacetate salt]"
12,< 500 nM,"COc1cc(Nc2ncc(C)c(Nc3cc(F)c4oc(=O)[nH]c4c3)n2)cc(C)c1C [Compound I-111, 5-(2-(3-methoxy-4,5-dimethylphenylamino)-5-methylpyrimidin-4-ylamino)-7-fluorobenzo[d]oxazol-2(3H)-one trifluoroacetate trifluoroacetate salt]"
13,< 500 nM,"Cc1cnc(Nc2ccc(N(C)C)cc2)nc1Nc1ccc2oc(=O)[nH]c2c1 [Compound I-25, 5-[2-(4-Dimethylamino-phenylamino)-5-methyl-pyrimidin-4-ylamino]-3H-benzooxazol-2-one]"
14,< 500 nM,"Cc1cnc(Nc2ccc(CC=O)cc2)nc1Nc1ccc2oc(=O)[nH]c2c1 [Compound I-30, {4-[5-Methyl-4-(2-oxo-2,3-dihydro-benzooxazol-5-ylamino)-pyrimidin-2-ylamino]-phenyl}-acetaldehyde]"
15,< 500 nM,"COC(=O)c1cnc(Nc2cc(C)c(C)c(C)c2)nc1Nc1ccc2oc(=O)[nH]c2c1 [Compound I-40, 4-(2-Oxo-2,3-dihydro-benzooxazol-5-ylamino)-2-(3,4,5-trimethyl-phenylamino)-pyrimidine-5-carboxylic acid methyl ester trifluoroacetate salt]"
16,< 500 nM,"O=C1CCc2cc(Nc3ncc(F)c(Nc4ccc5oc(=O)[nH]c5c4)n3)ccc2N1 [II-26, 6-(4-(2,3-dihydro-2-oxobenzo[d]oxazol-5-ylamino)-5-fluoropyrimidin-2-ylamino)-3,4-dihydroquinolin-2(1H)-one trifluoroacetate salt]"

# Continued, molecule first:
row,Compound,IC50
1,"Cc1cnc(Nc2cc(C)c(C)c(C)c2)nc1Nc1cc(/C=C/CCl)c2oc(=O)[nH]c2c1 [Compound I-96, 5-(2-(3,4,5-trimethylphenylamino)-5-methylpyrimidin-4-ylamino)-7-((E)-3-chloroprop-1-enyl)benzo[d]oxazol-2(3H)-one]",500 to 5000 nM
2,"Cc1ccc(Nc2ncc(F)c(Nc3ccc4oc(=O)[nH]c4c3)n2)cc1S(C)(=O)=O [Compound I-167, 5-(2-(4-methyl-3-(methylsulfonyl)phenylamino)-5-fluoropyrimidin-4-ylamino)benzo[d]oxazol-2(3H)-one trifluoroacetate salt]",< 500 nM
3,"COCCOc1ccc(Nc2ncc(C)c(Nc3ccc4oc(=O)[nH]c4c3)n2)c(F)c1OCCOC [Compound I-77, 5-(2-(2-fluoro-3,4-bis(2-methoxyethoxy)phenylamino)-5-methylpyrimidin-4-ylamino)benzo[d]oxazol-2(3H)-one trifluoroacetate salt]",< 500 nM
4,"Cc1cnc(Nc2ccc3c(c2)C(=O)NC3)nc1Nc1ccc2oc(=O)[nH]c2c1 [II-11, 5-methyl-N4-(2-oxo-2,3-dihydro-1,3-benzoxazol-5-yl)-N2-(1-oxo-1,3-dihydro-2H-isoindol-6-yl)-2,4-pyrimidinediamine]",< 500 nM
5,"COc1c(F)ccc(Nc2ncc([N+](=O)[O-])c(Nc3ccc4oc(=O)[nH]c4c3)n2)c1F [Compound I-43, 5-(2-(2,4-difluoro-3-methoxyphenylamino)-5-nitropyrimidin-4-ylamino)benzo[d]oxazol-2(3H)-one trifluoroacetate salt]",> 10000 nM
6,"Cc1cc(C)nc(Nc2ncc(C)c(Nc3ccc4oc(=O)[nH]c4c3)n2)c1 [II-15, N2-(4,6-dimethylpyridin-2-yl)-5-methyl-N4-(2-oxo-2,3-dihydro-1,3-benzoxazol-5-yl)-2,4-pyrimidinediamine]",500 to 5000 nM
7,"Cc1ccc(Nc2ncc(Cl)c(Nc3ccc4oc(=O)[nH]c4c3)n2)cc1C(F)(F)F [Compound I-9, 5-(5-chloro-2-(4-methyl-3-(trifluoromethyl)phenylamino)pyrimidin-4-ylamino)benzo[d]oxazol-2(3H)-one]",< 500 nM
8,"CCN(CC)c1cc(Nc2ncc(Cl)c(Nc3ccc4oc(=O)[nH]c4c3)n2)cc(C)c1C [Compound I-86, 5-(5-chloro-2-(3-(diethylamino)-4,5-dimethylphenylamino)pyrimidin-4-ylamino)benzo[d]oxazol-2(3H)-one formate salt]",< 500 nM
9,"Cc1cc(Nc2nc(Nc3cccc(S(N)(=O)=O)c3)ncc2F)cc2[nH]c(=O)oc12 [Compound I-171, 3-(5-fluoro-4-(7-methyl-2-oxo-2,3-dihydrobenzo[d]oxazol-5-ylamino)pyrimidin-2-ylamino)benzenesulfonamide trifluoroacetate salt]",< 500 nM
10,"COc1c(F)ccc(Nc2ncc(F)c(Nc3cc(F)c4oc(=O)[nH]c4c3)n2)c1F [Compound I-193, 5-(2-(2,4-difluoro-3-methoxyphenylamino)-5-fluoropyrimidin-4-ylamino)-7-fluorobenzo[d]oxazol-2(3H)-one trifluoroacetate salt]",500 to 5000 nM
11,"CCN(c1cc(C)c(C)c(C)c1)c1ncc(C)c(Nc2ccc3oc(=O)[nH]c3c2)n1 [Compound I-139, N2-ethyl-N2-(3,4,5-trimethyl)phenyl-5-methyl-N4-(2-oxo-2,3-dihydro-1,3-benzoxazol-5-yl)-2,4-pyrimidinediamine]",> 10000 nM
